Test results taken from patent US11292788B2, “IL-17 and IFN-gamma inhibition for the treatment of autoimmune diseases and chronic inflammation” (Immunic AG, priority 2017, dated 2022).
pIC50: −log10 of the molar value. In brackets after ≈: the same amount, converted by molar mass. Like-named read-outs stand apart in the source and are kept apart here.

Columns and labels:
[1] = system: INF-γ; assay: Cytokine assay: INF-γ production by human PBMC stimulated with PHA; assay type: cell-based; conditions: Homo sapiens, PBMC, IC50 class, read-out: IFN-gamma Inhib.
Outline: (§1)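 Human donor PBMC (1×10^5 cells/well) were activated with 2 μg/ml PHA and exposed to compounds for 48 h. Supernatant IL-17A, IL-17F and IFN-γ were measured by Luminex or ELISA. Screening used 10, 1, 0.1 and 0.01 μM; IC50 values came from semilogarithmic titrations.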

[2] = system: IL-17F; assay: Cytokine assay: IL-17F production by human PBMC stimulated with PHA; assay type: cell-based; conditions: Homo sapiens, PBMC, IC50 class, read-out: IL-17F Inhib.
Outline: as §1

[3] = system: IL-17A; assay: Cytokine assay: IL-17A production by human PBMC stimulated with PHA; assay type: cell-based; conditions: Homo sapiens, PBMC, IC50 class, read-out: IL-17A Inhib.
Outline: as §1

[4] = Microsomal stability: incubation with human liver microsomes, residual parent compound by HPLC-MS/MS; assay type: in vitro ADME; conditions: up to 60 min, read-out: t1/2 hLM
Outline: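 Compound at 1 μM final with 0.5 mg/ml pooled human liver microsomes and NADPH regenerating system, 0.1 M potassium phosphate pH 7.4, 0.4% DMSO, 37° C, sampled up to 60 min. Residual parent measured by HPLC-MS/MS; half-life and clearance from slope of remaining % of T0.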

[5] = Aqueous solubility in 50 mM phosphate buffer (HPLC/DAD); assay type: physicochemical; conditions: 50 mM phosphate buffer, 23 °C, pH 7.4, aqueous buffer, kinetic from dmso stock, aqueous solubility class; read-out: aq. solub.
Procedure: To achieve this, the samples (final volume 500 μl, 200 μM compound concentration) were incubated for 24 hours at 23° C. under continuous shaking at 1400 rpm (Thermomixer, Eppendorf) in aqueous phosphate buffers (pH 4.0, 6.0, 7.4 and 9.0) with a final DMSO concentration of 1%. To separate the undissolved compound from the solution, the samples were centrifuged (30 min 18000 g at 23° C.). Supernatants were measured via HPLC equipped with a UV detector and concentrations were calculated according to signals of a standard curve. The standard curve was prepared by diluting a stock solution of each compound (c=0.1 mg/ml; received by adding 10 μl of 20 mM compound in DMSO to 914 μl MeCN) in a certain amount of MeCN to cover a range of 0.1 to 200 μg/ml.

[6] = human liver microsomes 0.5 mg/ml, compound 1 μM, pH 7.4, 37° C.
[7] = pH 7.4, human liver microsomes, 1 μM compound, 0.5 mg/ml HLM, 37° C.

SMILES	pIC50 [1]	pIC50 [2]	pIC50 [3]	half-life at 1 μM [4, 6] [min]	solubility at 24 h [5] [µM]	half-life at 1 μM [4, 7] [min]
CC(C)(O)Cn1ncc(-c2onc(-c3c(F)cccc3Cl)c2-c2nccs2)c1C(F)(F)F [Example 1, 1-(4-(3-(2-chloro-6-fluorophenyl)-4-(thiazol-2-yl)isoxazol-5-yl)-5-(trifluoromethyl)-1H-pyrazol-1-yl)-2-methylpropan-2-ol]	> 7.30	6.30 to 7.30	6.30 to 7.30	> 100	> 10	
C[C@H](O)Cn1ncc(-c2onc(-c3c(F)cccc3Cl)c2C(=O)OC2COC2)c1C(F)(F)F [Example 60, oxetan-3-yl 3-(2-chloro-6-fluorophenyl)-5-{1-[(2S)-2-hydroxypropyl]-5-(trifluoromethyl)-1H-pyrazol-4-yl}-1,2-oxazole-4-carboxylate]	6.30 to 7.30	6.30 to 7.30	6.30 to 7.30	10 to 40	> 10	
C[C@H](O)Cn1ncc(-c2onc(-c3c(F)cccc3Cl)c2C(=O)OC2CC2)c1C(F)(F)F [Example 59, cyclopropyl 3-(2-chloro-6-fluorophenyl)-5-{1-[(2S)-2-hydroxypropyl]-5-(trifluoromethyl)-1H-pyrazol-4-yl}-1,2-oxazole-4-carboxylate]	> 7.30	> 7.30	> 7.30	10 to 40	> 10	
CC(C)(O)CCn1ncc(-c2onc(-c3c(F)cccc3Cl)c2-c2ncccn2)c1C(F)(F)F [Example 123, 4-{4-[3-(2-chloro-6-fluorophenyl)-4-(pyrimidin-2-yl)-1,2-oxazol-5-yl]-5-(trifluoromethyl)-1H-pyrazol-1-yl}-2-methylbutan-2-ol]	> 7.30	> 7.30	> 7.30		> 10	> 100
Cc1c(-c2onc(-c3c(F)cccc3Cl)c2-c2ncccn2)cnn1[C@H]1C[C@@](C)(O)C1 [Example 111, 3-{4-[3-(2-chloro-6-fluorophenyl)-4-(pyrimidin-2-yl)-1,2-oxazol-5-yl]-5-methyl-1H-pyrazol-1-yl}-1-methylcyclobutan-1-ol]	> 7.30	> 7.30	> 7.30		> 10	> 100
CC(C)(O)CCn1ncc(-c2onc(-c3c(F)cccc3Cl)c2COC2CC2)c1C(F)(F)F [Example 77, 4-{4-[3-(2-chloro-6-fluorophenyl)-4-(cyclopropoxymethyl)-1,2-oxazol-5-yl]-5-(trifluoromethyl)-1H-pyrazol-1-yl}-2-methylbutan-2-ol]	> 7.30	> 7.30	> 7.30	> 100	3 to 9.99 (≈ 1.46 to 4.87 µg/mL)	
Cc1c(-c2onc(-c3c(F)cccc3Cl)c2-c2cnccn2)cnn1[C@H]1C[C@@](C)(O)C1 [Example 110, 3-{4-[3-(2-chloro-6-fluorophenyl)-4-(pyrazin-2-yl)-1,2-oxazol-5-yl]-5-methyl-1H-pyrazol-1-yl}-1-methylcyclobutan-1-ol]	6.30 to 7.30	6.30 to 7.30	6.30 to 7.30		> 10	> 100
CCOCc1c(-c2c(F)cccc2Cl)noc1-c1cnn(C[C@@H](C)O)c1C(F)(F)F [Example 76, (2R)-1-{4-[3-(2-chloro-6-fluorophenyl)-4-(ethoxymethyl)-1,2-oxazol-5-yl]-5-(trifluoromethyl)-1H-pyrazol-1-yl}propan-2-ol]	> 7.30	6.30 to 7.30	6.30 to 7.30	10 to 40	> 10	
CCOC(=O)c1c(-c2c(F)cccc2Cl)noc1-c1cnn(C[C@@H](C)O)c1C(F)(F)F [Example 12, ethyl 3-(2-chloro-6-fluorophenyl)-5-{1-[(2R)-2-hydroxypropyl]-5-(trifluoromethyl)-1H-pyrazol-4-yl}-1,2-oxazole-4-carboxylate]	> 7.30	> 7.30	> 7.30	10 to 40	> 10	
